Measured values from patent publication US20130065227A1, “METHODS OF INCREASING MACROPINOCYTOSIS IN CANCER CELLS” (priority 2010, published 2013).

Tests used:
[1] = tested on: A549; assay: Cell response to AS1411; type: cell-based; settings: Cancer, non-small cell lung
Text: (§1) It has recently been discovered that AS1411 can stimulate macropinocytosis (MP) in cancer cells and this finding was verified by several different methods and in multiple cancer cell lines (Table 1).

[2] = tested on: MDA-MB-231; assay: Cell response to AS1411; type: cell-based; settings: Cancer, breast
Text: as §1

[3] = tested on: SK-N-DZ; assay: Cell response to AS1411; type: cell-based; settings: Cancer, neuroblastoma
Text: as §1

[4] = tested on: MCF7; assay: Cell response to AS1411; type: cell-based; settings: Cancer, breast
Text: as §1

[5] = tested on: CHO; assay: Cell response to AS1411; type: cell-based; settings: Non-cancer, hamster ovary
Text: as §1

[6] = tested on: RCC4; assay: Cell response to AS1411; type: cell-based; settings: Cancer, renal cell
Text: as §1

[7] = tested on: BEAS2B; assay: Cell response to AS1411; type: cell-based; settings: Non-cancer, lung epithelial
Text: as §1

[8] = tested on: RWPE1; assay: Cell response to AS1411; type: cell-based; settings: Non-cancer, prostate epithelial
Text: as §1

[9] = tested on: DU145; assay: Cell response to AS1411; type: cell-based
Text: as §1

[10] = tested on: Hs27 cells; assay: Uptake of fluorophore-labeled oligonucleotides by flow cytometry; type: cell-based, human; settings: 10 μM, 2 h
Procedure: FIG. 1 are graphs showing that AS1411 cell internalization is an active process. Cells were plated 18 h before uptake analysis. After incubation as described, cells were washed with ice-cold PBS, incubated with 1 μg/ml 7-AAD, harvested and resuspended in 1% paraformaldehyde containing 2 μg/ml actinomycin D, then analyzed by flow cytometry. (Panel A) DU145 cells were incubated at 37° C. with fresh complete DMEM medium containing 10 μM FL-AS1411 (black line) or 10 μM FL-CRO (gray line) for the time indicated. (Panel B) DU145 cells were incubated for 2 h at 37° C. in complete or serum-free DMEM medium containing 10 μM FL-AS1411, or 10 μM FL-CRO, or no oligonucleotide. (Panel C) Various cell lines were incubated with 10 μM FL-AS1411 (black outline histogram), 10 μM FL-CRO (gray outline histogram) or without DNA (solid gray histogram) at 37° C. or 4° C. for 2 h. All experiments were repeated at least three times. Data are mean of three independent samples; bars, SE; *(p<0.05).
FIG. 2 are graphs showing that AS1411 is internalized by different endocytic mechanisms in DU145 cancer cells and in non-malignant Hs27 cells. DU145 or Hs27 cells were plated 18 h before uptake analysis. Cells were pre-treated as described with inhibitor (gray histogram) or the corresponding vehicle control (black histogram) before addition of 10 μM FL-AS1411 and incubation at 37° C. for 2 h. After incubation, cells were harvested and analyzed by flow cytometry. Pre-treatment conditions were at 37° C. with: (Panel A) 5 μM Cytochalasin D for 30 min; (Panel B) 80 μM Dynasore for 30 min; or (Panel C) 3 mM amiloride for 1 h. All experiments were repeated at least three times and representative data are shown. Solid gray histograms represent background autofluorescence of unstained cells.
FIG. 9 are graphs showing the effects of inhibitors on various endocytic pathways. DU145 or Hs27 cells were plated 18 hr before uptake analysis. (Panel A) DU145 cells were pre-treated with dynamin inhibitor, […] Dynasore (black histogram) or DMSO (gray histogram) for 30 min at 37° C. After pre-treatment, cells were treated with […] transferrin conjugated with Alexa Fluor 488 for 30 min at 37° C. (Panel B) DU145 and Hs27 cells were pre-treated with 3 mM amiloride (black histogram) or vehicle (serum-free medium, gray histogram) for 1 h at 37° C. After pre-treatment, FL-CRO was added at a concentration of 10 μM and incubated at 37° C. for 2 h. After incubation, cells were harvested and analyzed by FACS. Gray solid histogram represents unstained cells.
To analyze uptake of the oligodeoxynucleotides or dextran-10K (macropinocytic marker) by flow cytometry, 2×10^5 cells in fresh supplemented culture medium (2.5 ml) were plated into 6-well plates for 18 h. […]

## 5′-d(GGTGGTGGTGGTTGTGGTGGTGGTGG) [AS1411]
[1]
  Cells respond?: Yes
[2]
  Cells respond?: Yes
[3]
  Cells respond?: Yes
[4]
  Cells respond?: Yes
[5]
  Cells respond?: No
[6]
  Cells respond?: Yes
[7]
  Cells respond?: No
[8]
  Cells respond?: No
[9]
  sensitivity of cells to AS1411: sensitive
[9]; DU145, Cancer, prostate
  Cells respond?: Yes
[10]
  uptake in Hs27 cells compared with cancer cells: higher uptake of AS1411 than any of the cancer cells analyzed
